Numbered stars: 1 amine (or outer) side, 2 acyl side, 3 side chain; on linkers, the order of the positions; unused ones are H or OH. Bridge positions count the residues as written; N and C are the ends. Square brackets hold non-standard residues; d marks the D form. Side chains are listed from the residue outwards. Peptide text beside a SMILES is read from it. * marks the point of attachment. C18 diacid = O=C(O)CCCCCCCCCCCCCCCCC(=O)*; γGlu = O=C(O)[C@H](CCC(=O)[*:2])N[*:1]; αMeF = C[C@](N)(Cc1ccccc1)C(=O)O; Aib = CC(C)(N)C(=O)O
How the values were obtained:
[1] = molecular target: T1, human calcitonin receptor (hCTR) (Homo sapiens, UniProt P30988); experiment: cAMP production in 1321N1 cells with stable recombinant expression of human calcitonin receptor (hCTR); type: cell-based; settings: cAMP, 1321N1 cells, assay buffer with 0.1% BSA; read-out: EC50 (pM) hCTR
T1 construct: expressed in transfected cells
T1 sequence (P30988 25-474): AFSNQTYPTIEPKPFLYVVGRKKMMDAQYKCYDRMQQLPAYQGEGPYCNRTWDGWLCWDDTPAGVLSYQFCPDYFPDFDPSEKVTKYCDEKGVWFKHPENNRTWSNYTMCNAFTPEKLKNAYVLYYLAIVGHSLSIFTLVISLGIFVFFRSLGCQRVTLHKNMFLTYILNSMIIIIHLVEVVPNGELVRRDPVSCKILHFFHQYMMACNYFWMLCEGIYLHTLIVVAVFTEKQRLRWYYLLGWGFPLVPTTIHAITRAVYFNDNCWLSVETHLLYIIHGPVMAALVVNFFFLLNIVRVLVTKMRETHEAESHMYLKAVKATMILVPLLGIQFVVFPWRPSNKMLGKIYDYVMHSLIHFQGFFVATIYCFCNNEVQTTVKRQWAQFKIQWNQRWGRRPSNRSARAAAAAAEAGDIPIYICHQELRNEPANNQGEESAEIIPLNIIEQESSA
Method in brief: (§1)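 Receptor-expressing cells (human receptors in 1321N1, rat receptors in HEK) incubated 30 min at room temperature with peptide in HBSS/HEPES pH 7.4, 0.1% BSA, 0.5 mM IBMX. cAMP read by HTRF; EC50 from 4-parameter fit as % of maximal amylin or calcitonin response.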

[2] = Pharmacokinetic determination via IV and SC administration in Sprague Dawley rats; settings: male, rat, plasma, 20 nmol/kg
[3] = Thioflavin T fibrillation assay; type: physicochemical; settings: ThT fibrillation assay; peptide 1 mg/mL in 25 mM sodium acetate buffer pH 4.0; 6 days at 37 °C with shaking; >144 h = no increase
Method in brief: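 Peptides at 1 mg/mL in 25 mM sodium acetate pH 4.0 with ThT (from 0.25 mM stock), incubated 6 days at 37 °C with intermittent orbital shaking at 500–750 rpm. Fluorescence (ex 444/em 480 nm) read every 30 min; value is average time to a rise in baseline-corrected signal.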

[4] = molecular target: T2, human amylin receptor (calcitonin receptor co-expressed with receptor activity modifying protein, RAMP3) (hAMYR3) (Homo sapiens, UniProt O60896+P30988); experiment: cAMP production in 1321N1 cells with stable recombinant expression of human amylin receptor (hAMYR3); type: cell-based; settings: for Ratio (selectivity hAMYR vs hCTR, ratio of EC50 values at the two receptors): EC50 hCTR / EC50 hAMYR3; for EC50: cAMP, 1321N1 cells, assay buffer with 0.1% BSA, read-out: EC50 (pM) hAMYR3
T2 construct: expressed in transfected cells
T2 sequence (P30988 25-474): T1 sequence (P30988 25-474)
T2 sequence (O60896 24-148 partner): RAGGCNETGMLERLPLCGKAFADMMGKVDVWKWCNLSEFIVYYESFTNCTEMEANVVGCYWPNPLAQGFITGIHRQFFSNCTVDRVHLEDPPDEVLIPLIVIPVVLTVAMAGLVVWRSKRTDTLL
Method in brief: as §1

EC50 [1] [pM]	half-life ([2]; iv) [h]	half-life ([2]; sc) [h]	Time taken to detect increase in fluorescence intensity [3] [h]	Ratio (selectivity hAMYR vs hCTR, ratio of EC50 values at the two receptors) [4]	EC50 [4] [pM]	SMILES
7010	9.4	12.2	>144	17	418	CC[C@H](C)[C@H](NC(=O)[C@@H]1CCCN1C(=O)CNC(=O)[C@H](Cc1ccccc1)NC(=O)[C@H](CC(N)=O)NC(=O)C(C)(C)NC(=O)[C@H](CO)NC(=O)[C@H](CO)NC(=O)[C@H](Cc1c[nH]cn1)NC(=O)[C@H](CCCNC(=N)N)NC(=O)[C@H](CC(C)C)NC(=O)[C@H](Cc1ccccc1)NC(=O)[C@H](CC(N)=O)NC(=O)[C@H](C)NC(=O)[C@H](CC(C)C)NC(=O)[C@H](CCCNC(=N)N)NC(=O)[C@H](CCC(N)=O)NC(=O)[C@@H](NC(=O)[C@H](C)NC(=O)[C@@H]1CSSC[C@H](NC(=O)[C@H](CCCCN)NC(=O)[C@@H](N)CCCCNC(=O)CC[C@H](NC(=O)CC[C@H](NC(=O)CCCCCCCCCCCCCCCCC(=O)O)C(=O)O)C(=O)O)C(=O)N[C@@H](CC(N)=O)C(=O)N[C@@H]([C@@H](C)O)C(=O)N[C@@H](C)C(=O)N[C@@H]([C@@H](C)O)C(=O)N1)[C@@H](C)O)C(=O)N[C@@H](CC(C)C)C(=O)N1CCC[C@H]1C(=O)N1CCC[C@H]1C(=O)N[C@H](C(=O)N[C@@H](CC(N)=O)C(=O)N[C@H](C(=O)NCC(=O)N[C@@H](CO)C(=O)N[C@@H](CC(N)=O)C(=O)N[C@H](C(=O)N[C@@H](Cc1ccc(O)cc1)C(N)=O)[C@@H](C)O)C(C)C)[C@@H](C)O [Peptide 66, K(γE-γE-C18diacid)K[CNTATC]ATQRLANFLRHSS(Aib)NFGPILPPTNVGSNTY-amide] (H-K([γGlu-γGlu-C18 diacid])KCNTATCATQRLANFLRHSS[Aib]NFGPILPPTNVGSNTY-NH2; disulfide 3-8)
4040	6.6	9.3	>144	15	278	CC[C@H](C)[C@H](NC(=O)[C@@H]1CCCN1C(=O)CNC(=O)[C@](C)(Cc1ccccc1)NC(=O)[C@H](CC(N)=O)NC(=O)[C@H](CC(N)=O)NC(=O)[C@H](CO)NC(=O)[C@H](CO)NC(=O)[C@H](Cc1c[nH]cn1)NC(=O)[C@H](CCCNC(=N)N)NC(=O)[C@H](CC(C)C)NC(=O)[C@H](Cc1ccccc1)NC(=O)[C@H](CC(N)=O)NC(=O)[C@H](C)NC(=O)[C@H](CC(C)C)NC(=O)[C@H](CCCNC(=N)N)NC(=O)[C@H](CCC(N)=O)NC(=O)[C@@H](NC(=O)[C@H](C)NC(=O)[C@@H]1CSSC[C@H](NC(=O)[C@@H](N)CCCCNC(=O)CC[C@H](NC(=O)CCCCCCCCCCCCCCCCC(=O)O)C(=O)O)C(=O)N[C@@H](CC(N)=O)C(=O)N[C@@H]([C@@H](C)O)C(=O)N[C@@H](C)C(=O)N[C@@H]([C@@H](C)O)C(=O)N1)[C@@H](C)O)C(=O)N[C@@H](CC(C)C)C(=O)N1CCC[C@H]1C(=O)N1CCC[C@H]1C(=O)N[C@H](C(=O)N[C@@H](CC(N)=O)C(=O)N[C@H](C(=O)NCC(=O)N[C@@H](CO)C(=O)N[C@@H](CC(N)=O)C(=O)N[C@H](C(=O)N[C@@H](Cc1ccc(O)cc1)C(N)=O)[C@@H](C)O)C(C)C)[C@@H](C)O [Peptide 19, K(γE-C18diacid)[CNTATC]ATQRLANFLRHSSNN(αMePhe)GPILPPTNVGSNTY-amide] (H-K([γGlu-C18 diacid])CNTATCATQRLANFLRHSSNN[αMeF]GPILPPTNVGSNTY-NH2; disulfide 2-7; N-terminus assumed)
6400	6	9.3		31	207	CC[C@H](C)[C@H](NC(=O)[C@@H]1CCCN1C(=O)CNC(=O)[C@H](Cc1ccccc1)NC(=O)[C@H](CC(N)=O)NC(=O)C(C)(C)NC(=O)[C@H](CO)NC(=O)[C@H](CO)NC(=O)[C@H](Cc1c[nH]cn1)NC(=O)[C@H](CCCNC(=N)N)NC(=O)[C@H](CC(C)C)NC(=O)[C@H](Cc1ccccc1)NC(=O)[C@H](CC(N)=O)NC(=O)[C@H](C)NC(=O)[C@H](CC(C)C)NC(=O)[C@H](CCCNC(=N)N)NC(=O)[C@H](CCC(N)=O)NC(=O)[C@@H](NC(=O)[C@H](C)NC(=O)[C@@H]1CSSC[C@H](NC(=O)[C@H](CCCCN)NC(=O)[C@@H](N)CCCCNC(=O)CC[C@H](NC(=O)CCCCCCCCCCCCCCCCC(=O)O)C(=O)O)C(=O)N[C@@H](CC(N)=O)C(=O)N[C@@H]([C@@H](C)O)C(=O)N[C@@H](C)C(=O)N[C@@H]([C@@H](C)O)C(=O)N1)[C@@H](C)O)C(=O)N[C@@H](CC(C)C)C(=O)N1CCC[C@H]1C(=O)N1CCC[C@H]1C(=O)N[C@H](C(=O)N[C@@H](CC(N)=O)C(=O)N[C@H](C(=O)NCC(=O)N[C@@H](CO)C(=O)N[C@@H](CC(N)=O)C(=O)N[C@H](C(=O)N[C@@H](Cc1ccc(O)cc1)C(N)=O)[C@@H](C)O)C(C)C)[C@@H](C)O [Peptide 65, K(γE-C18diacid)K[CNTATC]ATQRLANFLRHSS(Aib)NFGPILPPTNVGSNTY-amide] (H-K([γGlu-C18 diacid])KCNTATCATQRLANFLRHSS[Aib]NFGPILPPTNVGSNTY-NH2; disulfide 3-8)
